From paper PMC10495297, “Three new amide derivatives from the fungus Alternaria brassicicola” (Natural Products and Bioprospecting, 2023)

How the values were obtained:
[1] = MTT cytotoxicity assay, OCVAR; format: cell-based; conditions: human, OCVAR cells, 0.064 to 40 μM
Protocol: (§1) Compounds 1–6 were tested for the cytotoxicity against six cell lines, including five human cancer cell lines (HepG2, Hep3B, HT-29, HeLa, and OCVAR) and the normal liver cell LO2.
(§2) Compounds 1–6 were evaluated for the cytotoxicity against five human cancer cell lines and normal LO2, including OCVaR, HepG2, HeLa, HT-29, and Hep3B, by a previously reported method The tested cells were purchased from the Cell Bank of Chinese Academy of Science, Shanghai, China. For all cell lines, 5000 cells/ well were seeded into 96-well plates (n = 3) and cultured for 18 h, then exposed to the test compounds at concentrations ranging from 0.064 to 40 μM for 48 h, with cis-platin as the positive control. Briefly, 10 μL/well of MTT was added and cultured for another 4 h before removing medium and adding 100 μL of DMSO. The absorbance at 490 nm was detected, and complete medium containing only 0.1% DMSO was defined as 100% and blank well as 0%. The concentration−response relationships were analyzed using Graphpad Prism Software, version 7.0, and IC50 values derived using nonlinear regression analysis fit to a logistic equation.

[2] = MTT cytotoxicity assay, HeLa; format: cell-based; conditions: human, HeLa cells, 0.064 to 40 μM
Protocol: as §1, §2

[3] = MTT cytotoxicity assay, HepG2; format: cell-based; conditions: human, HepG2 cells, 0.064 to 40 μM
Protocol: as §1, §2

[4] = MTT cytotoxicity assay, HT-29; format: cell-based; conditions: human, HT-29 cells, HT-29, MTT, 0.064 to 40 μM
Protocol: as §1, §2

[5] = MTT cytotoxicity assay, normal liver cell LO2; format: cell-based; conditions: human, LO2 normal liver cells, 0.064 to 40 μM
Protocol: as §1, §2

[6] = MTT cytotoxicity assay, Hep3B; format: cell-based; conditions: human, Hep3B cells, 0.064 to 40 μM
Protocol: as §1, §2

[7] = test system: IKKβ; design: method as in PMID 30095270; conditions: cited from earlier work
[8] = test system: PPAR-γ; design: method as in PMID 30525677; conditions: cited from earlier work

| Molecule | IC50 at 48 h [1] [µM] | IC50 at 48 h [2] [µM] | IC50 at 48 h [3] [µM] | IC50 at 48 h [4] [µM] | IC50 at 48 h [5] [µM] | IC50 at 48 h [6] [µM] | IKKβ inhibitory effect [7] | agonistic action upon PPAR-γ [8] |
| --- | --- | --- | --- | --- | --- | --- | --- | --- |
| CCCCOC(=O)CCCCNC(C)=O [Compound 2, butyl 5-acetamidopentanoate] | > 40 | > 40 | > 40 | > 40 | > 40 | > 40 |  |  |
| COCc1ccc(C=O)n1CCCC(=O)O [Compound 5, 4-[2-formyl-5-(methoxymethyl)-1H-pyrrol-1-yl]butanoic acid] | > 40 | > 40 | > 40 | > 40 | > 40 | > 40 |  |  |
| alterbrassicene A |  |  |  |  |  |  | potent IKKβ inhibitory effect |  |
| alterbrassicicene A |  |  |  |  |  |  |  | strong agonistic action upon PPAR-γ |
